# Results published in patent US20040096456A1, “Method to treat hemophilia” (priority 2003, published 2004).
# Columns and labels:
# CD4^+ splenocytes = assay: Proliferation assay of CD4+ splenocytes from hemophilia A mice exposed to human fVIII; format: cell-based, mouse; settings: for proliferative response, ^3H-thymidine incorporation (FIG. 2): CD4^+ splenocytes from hemophilia A mice immunized with human fVIII, representative experiment; for proliferative response of pooled CD4^+ splenocytes: hemophilia A mice immunized by multiple subcutaneous injections of 5-10 μg recombinant human fVIII in Freund's adjuvant, four independent groups
# Experimental: Mice were treated up to 10 times intravenously with 1 μg of purified recombinant human fVIII. CD8^+ depleted spleen cells (so as to leave only CD4^+ T cells; hereafter referred to as “CD4^+ splenocytes”) were used in proliferation assays to test the response to increasing concentrations of fVIII (5-20 nM) and to pools of overlapping synthetic peptides, spanning the sequence of the individual the fVIII domains (fVIII domain pools). Also, the cytokines secreted by CD4^+ splenocytes, after challenge in vitro with fVIII, were determined. The anti-fVIII antibody was measured in the sera as well as their IgG subclass (by ELISA). The inhibitors were measured by the Bethesda assay (Kasper et al., 1975).
# Epitope Repertoire on Human fVIII Recognized be CD4^+ Cells from Hemophilia A Mice. The epitope repertoire of the CD4^+ cells sensitized to human fVIII in hemophilia A mice was examined. Mice were immunized by multiple subcutaneous injections of 5-10 μg recombinant human fVIII, emulsified in Freund's adjuvant. This ensured a stronger sensitization of the CD4^+ cells than that obtained after intravenous administration of fVIII. The use of CD4+ splenocytes from mice strongly sensitized to fVIII increases the chances of identifying a comprehensive CD4^+ repertoire, because the CD4^+ cells recognizing individual epitopes on an antigen are scarce among unselected CD4^+ splenocytes.
# Four independent groups of 2 to 4 hemophilia A mice were immunized. For each group their CD4^+ splenocytes were pooled, and tested for their proliferative response to fVIII, and to the individual synthetic peptides spanning the sequence of human fVIII. Because of the large number of peptides, all the peptides were tested only in one experiment. In two experiments, peptides spanning the A and C domains were tested. In a fourth experiment, only peptides spanning the Al domain were tested.
# CD4^+ blood lymphocytes = assay: 5 day proliferation assay of CD4+ blood lymphocytes with individual A3 and C2 peptides; format: cell-based, human; settings: for individual A3 peptides recognized by both patients (FIG. 4): hemophilia A patients with inhibitors # 5 and # 8, peptide 2 μg
# Source text: Subiects. Six HIV negative severe hemophilia A patients (3 with inhibitors and 3 without), 4 acquired hemophilia patients (Table 4) and 6 healthy subjects (3 men and 3 women, 34-48 years old) were studied. The acquired hemophilia patients had not received fVIII during the period of time when we studied their CD4^+ response to the fVIII peptides. Among hemophilia A patients, patient #8 had received immune tolerance therapy with high doses of fVIII. The last high dose of fVIII administered as part of the immune tolerance therapy was given approximately 8 months before the first experiment reported here. […] Patient #9 received a prophylactic regimen of weekly injections of standard therapeutic doses of fVIII. All other patients were self treated on an as needed basis. In several hemophilic and healthy subjects we tested the response of CD4^+ blood lymphocytes to fVIII peptides on more than one occasion, at intervals that ranged from a few weeks to several months.
# Peripheral blood mononuclear cells (PBMC) were isolated from venous blood and depleted them of CD8^+ T cells (Manfredi et al., 1993), using anti-human CD8 antibody (OKT8; Ortho Diagnostic Systems, Raritan, N.J. or Ancell, Bayport, Minn.) and paramagnetic beads coated with goat anti-mouse IgG antibody (PerSeptive Biosystems, Framingham, Mass.). The CD8^+ depleted PBMC (CD4^+ blood lymphocytes) were used for 5 day proliferation assays (Manfredi et al., […]), using sextuplet wells (2×10^5 cells/well; when cell yield was low, a minimum of 1×10^5 cells/well) and the following stimulants: phytohemagglutinin (Sigma; 10 μg/mL), T cell growth factor (Lymphocult; Biotest Diagnostic Corp., Danville, NJ; final concentration of interleukin 2, 10 U/mL), recombinant human fVIII (Baxter, Glendale, Calif. or Bayer, Elkhart, Ind.; 0.5-1 units/mL; normal plasma concentration: I unit/mL), and the synthetic fVIII peptides, both individually and in pools as described above (final concentration 2 μg/mL of each peptide). Sextuplet wells cultured without any stimulus provided the basal proliferation rate of the cells. We measured cell proliferation from the incorporation of ^3H-thymidine (1 μCi per well, specific activity 6.7 Ci/mmol; Dupont-NEN, Boston, Mass.), expressed as counts per minute (cpm). When an antigen induced a statistically significant (p<0.05) increase in proliferation (assessed using a two-tailed Student's t test), we calculated the stimulation index (SI: ratio between average cpm of cultures in the presence of the antigen and average basal proliferation of the same cells). The use of SI normalizes results, and allows comparison of experiments carried out at different times, and with different subjects.
# [1] = healthy subject #8, second experiment
substance,measurement,setting,value
"521-540: 20-residue synthetic peptide, residues 521-540 of the A2 domain of human fVIII (PTKSDPRCLTRYYSSFVNME; UniProt P00451 540-559, looked up, fragment)","proliferative response, ^3H-thymidine incorporation (FIG. 2)",CD4^+ splenocytes,recognized
"531-550: 20-residue synthetic peptide, residues 531-550 of the A2 domain of human fVIII (RYYSSFVNMERDLASGLIGP; UniProt P00451 550-569, looked up, fragment)","proliferative response, ^3H-thymidine incorporation (FIG. 2)",CD4^+ splenocytes,recognized
"2141-2160: 20-residue synthetic peptide, residues 2141-2160 of the C1 domain of human fVIII (NPPIIARYIRLHPTHYSIRS; UniProt P00451 2160-2179, looked up, fragment)",proliferative response of pooled CD4^+ splenocytes,CD4^+ splenocytes,recognized clearly and consistently in all or most experiments
AEPRKNFVKPNETKTYFWKV (listed as Homo sapiens) [1801-1820],individual A3 peptides recognized by both patients (FIG. 4),CD4^+ blood lymphocytes,recognized also by patient # 8
CLIGEHLHAGMSTLFLVYSN (listed as Homo sapiens) [2001-2020],A3 peptides that elicited the strongest response of CD4^+ lymphocytes,"CD4^+ blood lymphocytes; Hemophilia A without Inhibitors, Patient 9, t = 1",2001-2020
DLNSCSMPLGMESKAISDAQ (listed as Homo sapiens) [peptide 2171-2190],recognition by CD4^+ cells,"CD4^+ blood lymphocytes; patient # 8, hemophilia A with inhibitors, C2 peptides",recognized
FATWSPSKARLHLQGRSNAW (listed as Homo sapiens) [peptide 2201-2220],"proliferative response, ^3H-thymidine incorporation (FIG. 2)",CD4^+ splenocytes,recognized
same,proliferative response of pooled CD4^+ splenocytes,CD4^+ splenocytes,recognized clearly and consistently in all or most experiments
FDCKAWAYFSDVDLEKDVHS (listed as Homo sapiens) [1831-1850],A3 peptides that elicited the strongest response of CD4^+ lymphocytes,"CD4^+ blood lymphocytes; Acquired Hemophilia, Patient 1, t = 2",1831-1850
same,recognition by CD4^+ cells,"CD4^+ blood lymphocytes; patients #1 and #2 (acquired hemophilia), in some experiments",recognized
FTPVVNSLDPPLLTRYLRIH (listed as Homo sapiens) [2291-2310],C2 peptides that elicited the strongest response of CD4^+ lymphocytes,"CD4^+ blood lymphocytes; Healthy Subjects, Subject 9, t = 1",2291-2310
GLIGPLLVCHTNTLNPAHGR (listed as Homo sapiens) [1851-1870],"proliferative response, ^3H-thymidine incorporation (FIG. 2)",CD4^+ splenocytes,recognized
GMSSSPHVLRNRAQSGSVPQ (listed as Homo sapiens) [1711-1730],recognition by CD4^+ cells,CD4^+ blood lymphocytes; healthy subject #2,recognized
IAAVERLWDYGMSSSPHVLR (listed as Homo sapiens) [peptide 1701-1720],recognition by CD4^+ cells,CD4^+ blood lymphocytes; [1],recognized strongly
same,recognition by CD4^+ cells,"CD4^+ blood lymphocytes; patient #2, another experiment",recognized
same,recognition by CD4^+ cells,"CD4^+ blood lymphocytes; patient #8, another experiment",recognized
same,"proliferative response, ^3H-thymidine incorporation (FIG. 2)",CD4^+ splenocytes,recognized
same,proliferative response of pooled CD4^+ splenocytes,CD4^+ splenocytes,recognized clearly and consistently in all or most experiments
LHLQGRSNAWRPQVNNPKEW (listed as Homo sapiens) [2211-2230],C2 peptides that elicited the strongest response of CD4^+ lymphocytes,"CD4^+ blood lymphocytes; Hemophilia A without Inhibitors, Patient 9, t = 2",2211-2230
MESKAISDAQITASSYFTNM (listed as Homo sapiens) [2181-2200],C2 peptides that elicited the strongest response of CD4^+ lymphocytes,"CD4^+ blood lymphocytes; Hemophilia A with Inhibitors, Patient 6, t = 1",2181-2200
NENIHSIHFSGHVFTVRKKE (listed as Homo sapiens) [1951-1970],individual A3 peptides recognized by both patients (FIG. 4),CD4^+ blood lymphocytes,recognized also by patient # 8
SFQKKTRHYFIAAVERLWDY (listed as Homo sapiens) [peptide 1691-1710],experiments in which the peptide (or one or more peptides of the sequence region) was recognized,CD4^+ blood lymphocytes; 8 experiments done with CD4^+ cells from healthy subjects,7 of the 8
same,number of acquired hemophilia patients who recognized the peptide or region,"CD4^+ blood lymphocytes; acquired hemophilia patients, not consistent between experiments of the same patient",1
same,recognition by CD4^+ cells,CD4^+ blood lymphocytes; healthy subject #2,did not recognize
same,number of hemophilia A patients who strongly recognized the peptide,CD4^+ blood lymphocytes; hemophilia A patients with inhibitors,2
same,number of hemophilia A patients who strongly recognized the peptide,CD4^+ blood lymphocytes; hemophilia A patients without inhibitors,1
same,number of hemophilia A patients who strongly recognized the peptide,"CD4^+ blood lymphocytes; hemophilia A patients, in only one of the experiments of the same patient",3
same,recognition by CD4^+ cells,"CD4^+ blood lymphocytes; patient #8, one experiment",recognized
VEMKKEDFDIYDEDENQSPR (listed as Homo sapiens) [1671-1690],recognition by CD4^+ cells,"CD4^+ blood lymphocytes; patient #8, another experiment",recognized
YDEDENQSPRSFQKKTRHYF (listed as Homo sapiens) [1681-1700],recognition by CD4^+ cells,CD4^+ blood lymphocytes; [1],recognized strongly
"peptide 71-90: 20-residue synthetic peptide, residues 71-90 of the A1 domain of human fVIII (LLGPTIQAEVYDTVVITLKN; UniProt P00451 90-109, looked up, fragment)",proliferative response of pooled CD4^+ splenocytes,CD4^+ splenocytes,recognized clearly and consistently in all or most experiments
"peptide 601-620: 20-residue synthetic peptide, residues 601-620 of the A2 domain of human fVIII (VQLEDPEFQASNIMHSINGY; UniProt P00451 620-639, looked up, fragment)","proliferative response, ^3H-thymidine incorporation (FIG. 2)",CD4^+ splenocytes,recognized
same,proliferative response of pooled CD4^+ splenocytes,CD4^+ splenocytes,recognized clearly and consistently in all or most experiments
"peptide 2131-2150: 20-residue synthetic peptide, residues 2131-2150 of the C1 domain of human fVIII (DSSGIKHNIFNPPIIARYIR; UniProt P00451 2150-2169, looked up, fragment)","proliferative response, ^3H-thymidine incorporation (FIG. 2)",CD4^+ splenocytes,recognized
same,proliferative response of pooled CD4^+ splenocytes,CD4^+ splenocytes,recognized clearly and consistently in all or most experiments
